Results as given in patent publication US9474790B2, “Stable, protracted GLP-1/glucagon receptor co-agonists for medical use” (Novo Nordisk A/S, priority 2013, dated 2016).
Numbered stars: 1 amine (or outer) side, 2 acyl side, 3 side chain; on linkers, the order of the positions; unused ones are H or OH. Square brackets hold non-standard residues; d marks the D form. Side chains are listed from the residue outwards. Peptide text beside a SMILES is read from it. * marks the point of attachment. C18 diacid = O=C(O)CCCCCCCCCCCCCCCCC(=O)*; γGlu = O=C(O)[C@H](CCC(=O)[*:2])N[*:1]; AEEA = NCCOCCOCC(=O)O; Aib = CC(C)(N)C(=O)O

target: T1, human glucagon receptor (Homo sapiens, UniProt P47871); assay: Glucagon receptor potency, CRE luciferase reporter gene assay in BHK cells; type: cell-based; settings: BHK cells expressing human glucagon receptor, read-out: EC50 GlucR
T1 construct: expressed in transfected cells; host or cells: BHK cells (parent BHK570, CRE luciferase clone BHK/KZ10-20-48), clone pLJ6'-4-25
Procedure, shortened: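 Stably transfected BHK cells (BHK570 background) expressing human glucagon receptor with CRE-firefly luciferase reporter, 5×10EE3 cells/well in DMEM/HEPES with 2% ovalbumin and 0.2% Pluronic F-68. Compounds 1×10EE-13 to 1×10EE-6 M final, 3 h at 37 °C; luminescence read, EC50 from four-parameter fit, in pM.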

T1 sequence (P47871 26-477): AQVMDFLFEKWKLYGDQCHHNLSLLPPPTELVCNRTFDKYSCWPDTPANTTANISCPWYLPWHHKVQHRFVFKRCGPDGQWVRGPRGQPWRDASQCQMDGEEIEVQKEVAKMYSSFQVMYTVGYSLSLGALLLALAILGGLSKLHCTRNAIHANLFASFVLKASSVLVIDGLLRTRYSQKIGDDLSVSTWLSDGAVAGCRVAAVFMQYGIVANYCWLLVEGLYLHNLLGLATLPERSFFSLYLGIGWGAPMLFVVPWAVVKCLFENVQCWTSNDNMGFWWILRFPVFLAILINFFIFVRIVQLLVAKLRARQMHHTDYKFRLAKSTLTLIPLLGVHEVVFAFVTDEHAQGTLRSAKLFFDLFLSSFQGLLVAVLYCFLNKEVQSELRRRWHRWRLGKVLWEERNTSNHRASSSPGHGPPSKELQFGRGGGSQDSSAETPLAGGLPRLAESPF

SMILES	EC50
CC(C)C[C@H](NC(=O)[C@H](Cc1ccc(O)cc1)NC(=O)[C@H](CCCCN)NC(=O)[C@H](CO)NC(=O)[C@H](CC(C)C)NC(=O)[C@H](CC(=O)O)NC(=O)[C@H](CO)NC(=O)[C@@H](NC(=O)[C@H](Cc1ccccc1)NC(=O)[C@@H](NC(=O)CNC(=O)[C@H](CCC(N)=O)NC(=O)C(C)(C)NC(=O)[C@@H](N)Cc1c[nH]cn1)[C@@H](C)O)[C@@H](C)O)C(=O)N[C@@H](CCC(=O)O)C(=O)N[C@@H](CO)C(=O)N[C@@H](CCCNC(=N)N)C(=O)N[C@@H](CCCNC(=N)N)C(=O)N[C@@H](C)C(=O)N[C@@H](CCCNC(=N)N)C(=O)N[C@@H](CCC(=O)O)C(=O)N[C@@H](Cc1ccccc1)C(=O)N[C@H](C(=O)N[C@@H](CCC(N)=O)C(=O)N[C@@H](Cc1c[nH]c2ccccc12)C(=O)N[C@@H](CC(C)C)C(=O)N[C@@H](CC(C)C)C(=O)N[C@@H](CCCCNC(=O)CC[C@H](NC(=O)CC[C@H](NC(=O)[C@H](CO)NC(=O)[C@H](CCC(=O)O)NC(=O)[C@H](CO)NC(=O)CC[C@H](NC(=O)CC[C@H](NC(=O)CCCCCCCCCCCCCCCCC(=O)O)C(=O)O)C(=O)O)C(=O)O)C(=O)O)C(=O)N[C@H](C(N)=O)[C@@H](C)O)C(C)C [Example 67, N^ε28-[(4S)-4-carboxy-4-[[(4S)-4-carboxy-4-[[(2S)-2-[[(2S)-4-carboxy-2-[[(2S)-2-[[(4S)-4-carboxy-4-[[(4S)-4-carboxy-4-(17-carboxyheptadecanoylamino)butanoyl]amino]butanoyl]amino]-3-hydroxypropanoyl]amino]butanoyl]amino]-3-hydroxypropanoyl]amino]butanoyl]amino]butanoyl]-[Aib2,Leu10,Glu15,Arg20,Glu21,Leu27,Lys28]-Glucagon amide] (H-H[Aib]QGTFTSDLSKYLESRRAREFVQWLLK([γGlu-γGlu-Ser-Glu-Ser-γGlu-γGlu-C18 diacid])T-NH2; N-terminus assumed)	10 pM
CC(C)C[C@H](NC(=O)[C@H](Cc1ccc(O)cc1)NC(=O)[C@H](CCCCN)NC(=O)[C@H](CO)NC(=O)[C@H](CC(C)C)NC(=O)[C@H](CC(=O)O)NC(=O)[C@H](CO)NC(=O)[C@@H](NC(=O)[C@H](Cc1ccccc1)NC(=O)[C@@H](NC(=O)CNC(=O)[C@H](Cc1c[nH]cn1)NC(=O)C(C)(C)NC(=O)[C@@H](N)Cc1c[nH]cn1)[C@@H](C)O)[C@@H](C)O)C(=O)N[C@@H](CCC(=O)O)C(=O)N[C@@H](CO)C(=O)N[C@@H](CCCCN)C(=O)N[C@@H](CCCNC(=N)N)C(=O)N[C@@H](C)C(=O)N[C@@H](CCCNC(=N)N)C(=O)N[C@@H](CCC(=O)O)C(=O)N[C@@H](Cc1ccccc1)C(=O)N[C@H](C(=O)N[C@@H](CCC(N)=O)C(=O)N[C@@H](Cc1c[nH]c2ccccc12)C(=O)N[C@@H](CC(C)C)C(=O)N[C@@H](CC(C)C)C(=O)N[C@@H](CCCCNC(=O)CC[C@H](NC(=O)CC[C@H](NC(=O)CC[C@H](NC(=O)CCCCCCCCCCCCCCCCC(=O)O)C(=O)O)C(=O)O)C(=O)O)C(=O)N[C@H](C(N)=O)[C@@H](C)O)C(C)C [Example 34, N^ε28-[(4S)-4-carboxy-4-[[(4S)-4-carboxy-4-[[(4S)-4-carboxy-4-(17-carboxyheptadecanoylamino)butanoyl]amino]butanoyl]amino]butanoyl]-[Aib2,His3,Leu10,Glu15,Lys17,Arg20,Glu21,Leu27,Lys28]-Glucagon amide] (H-H[Aib]HGTFTSDLSKYLESKRAREFVQWLLK([γGlu-γGlu-γGlu-C18 diacid])T-NH2; N-terminus assumed)	2.9 pM
CC(C)C[C@H](NC(=O)[C@H](Cc1ccc(O)cc1)NC(=O)[C@H](CCCNC(=N)N)NC(=O)[C@H](CO)NC(=O)[C@H](CC(C)C)NC(=O)[C@H](CC(=O)O)NC(=O)[C@H](CO)NC(=O)[C@@H](NC(=O)[C@H](Cc1ccccc1)NC(=O)[C@@H](NC(=O)CNC(=O)[C@H](CCC(N)=O)NC(=O)C(C)(C)NC(=O)[C@@H](N)Cc1c[nH]cn1)[C@@H](C)O)[C@@H](C)O)C(=O)N[C@@H](CC(=O)O)C(=O)N[C@@H](C)C(=O)N[C@@H](CCCNC(=N)N)C(=O)N[C@@H](CCCNC(=N)N)C(=O)N[C@@H](C)C(=O)N[C@@H](CCCNC(=N)N)C(=O)N[C@@H](CC(=O)O)C(=O)N[C@@H](Cc1ccccc1)C(=O)N[C@H](C(=O)N[C@@H](CCC(N)=O)C(=O)N[C@@H](Cc1c[nH]c2ccccc12)C(=O)N[C@@H](CC(C)C)C(=O)N[C@@H](CC(C)C)C(=O)N[C@@H](CCCCNC(=O)CC[C@H](NC(=O)CC[C@H](NC(=O)CC[C@H](NC(=O)CCCCCCCCCCCCCCCCC(=O)O)C(=O)O)C(=O)O)C(=O)O)C(=O)N[C@H](C(N)=O)[C@@H](C)O)C(C)C [Example 62, N^ε28-[(4S)-4-carboxy-4-[[(4S)-4-carboxy-4-[[(4S)-4-carboxy-4-(17-carboxyheptadecanoylamino)butanoyl]amino]butanoyl]amino]butanoyl]-[Aib2,Leu10,Arg12,Ala16,Arg20,Leu27,Lys28]-Glucagon amide] (H-H[Aib]QGTFTSDLSRYLDARRARDFVQWLLK([γGlu-γGlu-γGlu-C18 diacid])T-NH2; N-terminus assumed)	10 pM
CC(C)C[C@H](NC(=O)[C@H](Cc1ccc(O)cc1)NC(=O)[C@H](CCCCN)NC(=O)[C@H](CO)NC(=O)[C@H](CC(C)C)NC(=O)[C@H](CC(=O)O)NC(=O)[C@H](CO)NC(=O)[C@@H](NC(=O)[C@H](Cc1ccccc1)NC(=O)[C@@H](NC(=O)CNC(=O)[C@H](CCC(N)=O)NC(=O)C(C)(C)NC(=O)[C@@H](N)Cc1c[nH]cn1)[C@@H](C)O)[C@@H](C)O)C(=O)N[C@@H](CC(=O)O)C(=O)N[C@@H](C)C(=O)N[C@@H](CCCNC(=N)N)C(=O)N[C@@H](CCCNC(=N)N)C(=O)N[C@@H](C)C(=O)N[C@@H](CCCNC(=N)N)C(=O)N[C@@H](CCC(=O)O)C(=O)N[C@@H](Cc1ccccc1)C(=O)N[C@H](C(=O)N[C@@H](CCC(N)=O)C(=O)N[C@@H](Cc1c[nH]c2ccccc12)C(=O)N[C@@H](CC(C)C)C(=O)N[C@@H](CC(C)C)C(=O)N[C@@H](CCCCNC(=O)CC[C@H](NC(=O)CC[C@H](NC(=O)COCCOCCNC(=O)COCCOCCNC(=O)CC[C@H](NC(=O)CCCCCCCCCCCCCCCCC(=O)O)C(=O)O)C(=O)O)C(=O)O)C(=O)N[C@H](C(N)=O)[C@@H](C)O)C(C)C [Example 43, N^ε28-[(4S)-4-carboxy-4-[[(4S)-4-carboxy-4-[[2-[2-[2-[[2-[2-[2-[[(4S)-4-carboxy-4-(17-carboxyheptadecanoylamino)butanoyl]amino]ethoxy]ethoxy]acetyl]amino]ethoxy]ethoxy]acetyl]amino]butanoyl]amino]butanoyl]-[Aib2,Leu10,Ala16,Arg20,Glu21,Leu27,Lys28]-Glucagon amide] (H-H[Aib]QGTFTSDLSKYLDARRAREFVQWLLK([γGlu-γGlu-AEEA-AEEA-γGlu-C18 diacid])T-NH2; N-terminus assumed)	2 pM
